Patent US20080085912A1, “Isoxazole derivatives and methods of treating diseases” (Unitech Pharmaceuticals, Inc., priority 2006, published 2008)
Several values for one entry are separate records, joined by “and”; a condition that tells them apart may be missing. Identical values can stand only once.

Experiments:
[1] = test system: Carrageenan-induced hind paw edema; experiment: Carrageenan-induced hind paw edema test on rats; type: in vivo, SD rats; settings: for Anti-inflammatory activity (in words): carrageenan-induced edema animal study; for Avg E % of the injected paw: group average of 5 rats; for Avg E % of the injected paw / Edema % of the injected paw: 20 mg/kg i.p. pretreatment; for Volume (ml) of the injected paw / Edema % of the injected paw: individual rats (Rat 1-5); for Volume (ml) of the injected paw: 20 mg/kg i.p. 1 h before carrageenan, 20 mg/kg
Method: Male/female SD rats (180-215 g) were assigned to two groups: (1) control group and (2) test group, with 5 rats in each group. UTR-1 was first dissolved in DMSO (20 mg in 0.5 ml DMSO) and then diluted with 1% CMC (carboxymethylcellulose) to make 5 ml sample preparation. One hour before the carrageenan challenge (pretreatment), 1 ml of the sample preparation was injected i.p. into a rat in a test group. This is equivalent to 20 mg/kg (1 ml×4 mg/ml×1000 g/200 g=20 mg/kg based on the average weight per rat of 200 g). The vehicle without drug was injected in the same way into animals in the control group. In order to induce inflammation, 50 μl of a 1% carrageenan solution in normal saline was injected into the right hind paw subplantar tissue. The development of paw edema was measured by a plethysmometer (Basile 7140 plethysmometer, Ugo, Varese, Italy). After the carrageenan challenge, each paw volume (ml) was measured hourly. The Edema (E %) is calculated as follows: [formula] V0=Volume (mL) of the rear right footpad before the injection of Carrageenan Vt=Volume (mL) of the rear right footpad at “t” time after the injection of Carrageenan

TNF-α = TNF-α released from UVB-irradiated keratinocytes in vitro (ELISA); type: cell-based, Human
Method: 1. Vehicle stock: 50:50 v/v EtOH:PEG 600
2. UTR-1 stock: 3.5 mg/ml UTR-1 in a vehicle of 50:50 v/v EtOH:PEG 600
(§1) Human epidermal keratinocytes were seeded into 6-well plates and grown at 37±2° C. and 5±1% CO2 using serum free Epilife media supplemented as recommended by the manufacturer. Upon reaching confluency, the media were removed and the cells were treated overnight with Epilife media containing 1% v/v each of the stock solutions above (Vehicle stock and UTR-1 stock). Final concentration was 35 μg/ml for UTR-1. Two wells in the 6-well plate were prepared for each treatment. After applying the test material the cells were incubated for 24 hours at 37±2° C. and 5±1% CO2.
(§2) At the end of the incubation period the culture media was removed via aspiration and replaced with phosphate buffered saline and the cells were then irradiated with ˜30 mJ/cm^2 of UVB radiation. After the irradiation, the phosphate buffered saline was replaced by fresh culture media and the cells were incubated overnight at 37±2° C. and 5±1% CO2. After the incubation the cell culture media was collected to measure TNF-α release by a commercial ELISA Assay kit. The cells were washed once with PBS and then a trypsin/EDTA solution was added to release the cells, followed by the addition of trypsin neutralizing solution. The cells were collected and pooled into 15 ml centrifuge tubes based on their treatment and pelleted by centrifuging at 1000 RPM at 4±2° C. After removing the supernatant, the pelleted cells were lysed by adding 500 μl of guanidinium thiocyanate lysis solution to each tube and then repeatedly drawing and releasing the solution into the pipette until the cell pellet is dissolved. Total RNA was then isolated by an RNAqueous kit (Ambion). After purifying the RNA, mRNA is isolated and the converted into anti-sense RNA (aRNA). The aRNA is then labeled with a florescent probe. In this case, Cy3 (green florescent signal) is used to label the sRNA from untreated sample, while Cy5 (red fluorescent) is used to label the aRNA of treated sample. Once the aRNA is labeled and any unincorporated dye is removed from the sample, the labeled aRNA is mixed with a hybridized solution and applied to the microarray. The microarray is then hybridized overnight at 60-65° C. After hybridization, the microarray is washed to remove any unbound aRNA probe and then scanned with a microarray scanner. Criteria for evaluating changes in gene expression may vary. In general, (1) the fluorescence intensity of the gene marker should be greater than the background intensity, and (2) the ratio of Cy5/Cy3 (treated/untreated) fluorescence intensity needs to be greater than 1.3 or less than 0.66 to indicate a change of ±30% in gene expression.

JAK3 = experiment: Gene array analysis, keratinocytes: JAK3; type: cell-based, Human; settings: for Ratio of treated/control / Suppression %: 35 μg/ml, UVB
Method: as §1, §2

MAP3K2 = experiment: Gene array analysis, keratinocytes: MAP3K2; type: cell-based, Human
Method: as §1
as §2, with “In this case, Cy3 (green florescent signal) is used to label the sRNA from untreated sample, while Cy5 (red fluorescent) is used to label the aRNA of treated sample. Once the aRNA is labeled and any unincorporated dye is removed from the sample, the labeled aRNA is mixed with a hybridized solution and applied to the microarray. The microarray is then hybridized overnight at 60-65° C. After hybridization, the microarray is washed to remove any unbound aRNA probe and then scanned with a microarray scanner. Criteria for evaluating changes in gene expression may vary.” left out

PTGER1 = experiment: Gene array analysis, keratinocytes: PTGER1; type: cell-based, Human; settings: 35 μg/ml; UVB
Method: as §1
(§3) At the end of the incubation period the culture media was removed via aspiration and replaced with phosphate buffered saline and the cells were then irradiated with ˜30 mJ/cm^2 of UVB radiation. After the irradiation, the phosphate buffered saline was replaced by fresh culture media and the cells were incubated overnight at 37±2° C. and 5±1% CO2. After the incubation the cell culture media was collected to measure TNF-α release by a commercial ELISA Assay kit. […] In general, (1) the fluorescence intensity of the gene marker should be greater than the background intensity, and (2) the ratio of Cy5/Cy3 (treated/untreated) fluorescence intensity needs to be greater than 1.3 or less than 0.66 to indicate a change of ±30% in gene expression.

ITGB6 = experiment: Gene array analysis, keratinocytes: ITGB6; type: cell-based, Human; settings: 35 μg/ml; UVB
Method: as §1, §3

APOBEC1 = experiment: Gene array analysis, keratinocytes: APOBEC1; type: cell-based, Human; settings: 35 μg/ml; UVB
Method: as §1, §3

TUCAN = experiment: Gene array analysis, keratinocytes: TUCAN; type: cell-based, Human; settings: 35 μg/ml; UVB
Method: as §1, §3

EFA6R = experiment: Gene array analysis, keratinocytes: EFA6R; type: cell-based, Human; settings: 35 μg/ml; UVB
Method: as §1, §3

DEFA6 = experiment: Gene array analysis, keratinocytes: DEFA6; type: cell-based, Human; settings: 35 μg/ml; UVB
Method: as §1, §3

EPHB4 = experiment: Gene array analysis, keratinocytes: EPHB4; type: cell-based, Human; settings: 35 μg/ml; UVB
Method: as §1, §3

[2] = UVB ~30 mJ/cm^2, 35 μg/ml, 24 h pretreatment
[3] = array entry MAP3K2 (homo sapien), 35 μg/ml, UVB

## Cc1cc(C(=O)O)no1 [UTR-1, 5-methylisoxazole-3-carboxylic acid]
[1]
  Anti-inflammatory activity (in words): surpassingly effective in anti-inflammation
[1]; listed as 5-methylisoxazole-3-carboxylic aicd
  Anti-inflammatory activity (in words): surprisingly and unexpectedly effective in anti-inflammation
[1]; Time 0 hr
  Avg E % of the injected paw: 0.00%
  Volume (ml) of the injected paw: 1.46 ml and 1.48 ml and 1.35 ml and 1.33 ml (2×)
  Edema % of the injected paw: 0.00%
[1]; Time 1 hr
  Avg E % of the injected paw: 11.90%
  Volume (ml) of the injected paw: 1.77 ml and 1.47 ml and 1.50 ml (2×) and 1.53 ml
  Edema % of the injected paw: 21.23% and −0.68% and 11.11% and 15.04% and 12.78%
[1]; Time 2 hr
  Avg E % of the injected paw: 22.70%
  Volume (ml) of the injected paw: 1.92 mL and 1.53 mL and 1.65 mL and 1.66 mL and 1.75 mL
  Edema % of the injected paw: 31.51% and 3.38% and 22.22% and 24.81% and 31.58%
[1]; Time 3 hr
  Avg E % of the injected paw: 37.85%
  Volume (ml) of the injected paw: 2.36 mL and 1.55 mL and 1.76 mL and 2.10 mL and 1.79 mL
  Edema % of the injected paw: 61.64% and 4.73% and 30.37% and 57.89% and 34.59%
[1]; Time 4 hr
  Avg E % of the injected paw: 49.89%
  Volume (ml) of the injected paw: 2.49 mL and 1.62 mL and 1.78 mL and 2.35 mL and 2.14 mL
  Edema % of the injected paw: 70.55% and 9.46% and 31.85% and 76.69% and 60.90%
TNF-α
  Reduction of TNF-α secreted from stimulated keratinocyte cells (in words): very effective in reducing TNF-α
TNF-α; [2]
  TNFα (pg/ml), Sample2: 119 pg/mL
  TNFα (pg/ml), sample1: 120 pg/mL
TNF-α; average of n=2 wells, UVB ~30 mJ/cm^2, 35 μg/ml
  TNFα Avg.: 120 pg/mL
JAK3; array entry JAK3 (homo sapien)
  Ratio of treated/control: 0.386
  Suppression %: 61%
JAK3; array entry JAK3
  Ratio of treated/control: 0.417
  Suppression %: 58%
JAK3; gene array analysis
  Gene suppression (in words): significantly suppressed
MAP3K2; [3]
  Ratio of treated/control: 0.592
  Suppression %: 40%
MAP3K2; gene array analysis
  Gene suppression (in words): significantly suppressed
PTGER1
  Ratio of treated/control: 0.286
  Suppression %: 71%
ITGB6
  Ratio of treated/control: 0.3
  Suppression %: 70%
APOBEC1
  Ratio of treated/control: 0.333
  Suppression %: 67%
TUCAN
  Ratio of treated/control: 0.333
  Suppression %: 67%
EFA6R
  Ratio of treated/control: 0.375
  Suppression %: 63%
DEFA6
  Ratio of treated/control: 0.38
  Suppression %: 62%
EPHB4
  Ratio of treated/control: 0.433
  Suppression %: 57%
